Measured values: patent publication US20110224204A1, “DI-SUBSTITUTED PHENYL COMPOUNDS” (priority 2008, published 2011)

Target: Human PDE10A1 (Homo sapiens, UniProt Q9Y233)
Assay: hPDE10A1 Enzyme Inhibition
Format: biochemical
Details: [3H]-cAMP substrate; read-out: hPDE10A1 IC50 Band
Procedure: hPDE10A1 Enzyme Activity: 50 μl samples of serially diluted Human PDE10A1 enzyme were incubated with 50 μl of [^3H]-cAMP for 20 minutes (at 37° C.). Reactions were carried out in Greiner 96 deep well 1 ml master-block. The enzyme was diluted in 20 mM Tris HCl pH7.4 and [^3H]-cAMP was diluted in 10 mM MgCl2, 40 mM Tris.HCl pH 7.4. The reaction was terminated by denaturing the PDE enzyme (at 70° C.) after which [^3H]-5′-AMP was converted to [^3H]-adenosine by adding 25 μl snake venom nucleotidase and incubating for 10 minutes (at 37° C.). Adenosine, being neutral, was separated from charged cAMP or AMP by the addition of 200 μl Dowex resin. Samples were shaken for 20 minutes then centrifuged for 3 minutes at 2,500 r.p.m. 50 μl of supernatant was removed and added to 200 μl of MicroScint-20 in white plates (Greiner 96-well Optiplate) and shaken for 30 minutes before reading on Perkin Elmer TopCount Scintillation Counter.
hPDE10A1 Enzyme Inhibition: To check inhibition profile 11 μl of serially diluted inhibitor was added to 50 μl of [^3H]-cAMP and 50 ul of diluted Human PDE10A1 and assay was carried out as in the enzyme activity assay. Data was analysed using Prism software (GraphPad Inc).

Chain of Human PDE10A1 (Q9Y233 1-779 isoform Q9Y233-1): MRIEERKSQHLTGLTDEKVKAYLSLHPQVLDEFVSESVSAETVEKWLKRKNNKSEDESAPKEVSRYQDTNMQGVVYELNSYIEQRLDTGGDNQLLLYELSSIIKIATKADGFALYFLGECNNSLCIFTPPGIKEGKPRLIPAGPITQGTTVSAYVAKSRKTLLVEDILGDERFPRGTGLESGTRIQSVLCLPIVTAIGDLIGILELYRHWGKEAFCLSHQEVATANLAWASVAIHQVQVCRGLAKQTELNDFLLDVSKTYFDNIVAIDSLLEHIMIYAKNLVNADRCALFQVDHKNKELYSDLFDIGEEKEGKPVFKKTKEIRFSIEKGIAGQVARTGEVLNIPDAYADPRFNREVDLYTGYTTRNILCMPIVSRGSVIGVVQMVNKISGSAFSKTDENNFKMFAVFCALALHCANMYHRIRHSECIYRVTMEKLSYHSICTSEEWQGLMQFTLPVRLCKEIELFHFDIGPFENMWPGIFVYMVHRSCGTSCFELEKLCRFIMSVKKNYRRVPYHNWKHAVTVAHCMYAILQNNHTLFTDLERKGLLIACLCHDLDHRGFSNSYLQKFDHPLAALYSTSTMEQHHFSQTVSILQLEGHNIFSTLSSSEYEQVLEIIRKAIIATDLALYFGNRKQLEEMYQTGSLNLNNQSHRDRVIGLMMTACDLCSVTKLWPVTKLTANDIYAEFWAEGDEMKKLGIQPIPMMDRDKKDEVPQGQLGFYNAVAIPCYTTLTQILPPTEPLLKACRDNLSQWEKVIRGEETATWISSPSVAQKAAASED

| Structure (SMILES) | IC50 [nM] |
| --- | --- |
| CC(C)Oc1ccccc1-c1ccc(OCc2ccc3ccccc3n2)cc1 [Example 1879, 2-((2′-isopropoxybiphenyl-4-yloxy)methyl)quinoline] | > 50 |
| Cc1cccc(-c2ccc(OCc3ccc4ccccc4n3)cc2)c1-c1ccncc1 [Example 1886, 2-(3′-Methyl-2′-pyridin-4-yl-biphenyl-4-yloxymethyl)-quinoline] | > 50 |
| c1ccc(-c2ccoc2)c(-c2ccc(OCc3ccc4ccccc4n3)cc2)c1 [Example 1871, 2-((2′-(furan-3-yl)biphenyl-4-yloxy)methyl)quinoline] | > 50 |
| Clc1ccc(-c2ccccc2-c2ccc(OCc3ccc4ccccc4n3)cc2)cc1 [Example 180] | > 50 |
| CN(C)Cc1cccc(-c2ccncc2)c1-c1ccc(OCc2ccc3ccccc3n2)cc1 [Example 1874, N,N-dimethyl-1-(6-(pyridin-4-yl)-4′-(quinolin-2-ylmethoxy)biphenyl-2-yl)methanamine] | > 50 |
| Fc1cccc(-c2ccncc2)c1-c1ccc(OCc2ccc3ccccc3n2)cc1 [Example 381, 2-(6′-Fluoro-2′-pyridin-4-yl-biphenyl-4-yloxymethyl)-quinoline] | > 50 |
| Cc1cc(-c2ccncc2)c(-c2ccc(OCc3ccc4ccccc4n3)cc2)cc1C [Example 1880, 2-((4′,5′-dimethyl-2′-(pyridin-4-yl)biphenyl-4-yloxy)methyl)quinoline] | > 50 |
| N#Cc1cccc(-c2ccc(OCc3ccc4ccccc4n3)cc2)c1-c1ccncc1 [Example 1870, 2-Pyridin-4-yl-4′-(quinolin-2-ylmethoxy)-biphenyl-3-carbonitrile] | > 50 |
| Cc1cccnc1COc1ccc(-c2ccccc2-c2ccncc2)cc1 [Example 1882, 3-methyl-2-((2′-(pyridin-4-yl)biphenyl-4-yloxy)methyl)pyridine] | > 50 |
| N#Cc1ccc(-c2ccccc2-c2ccc(OCc3ccc4ccccc4n3)cc2)cc1Cl [Example 1865] | > 50 |
| Clc1ccc(-c2ccc(OCc3ccc4ccccc4n3)cc2)c(-c2ccncc2)c1 [Example 1876, 2-((4′-Chloro-2′-(pyridin-4-yl)biphenyl-4-yloxy)methyl)quinoline] | > 50 |
| CCc1ccccc1-c1ccc(OCc2ccc3ccccc3n2)cc1 [Example 1875, 2-((2′-ethylbiphenyl-4-yloxy)methyl)quinoline] | > 50 |
| Fc1ccc(-c2ccncc2)c(N2CCC(OCc3ccc4ccccc4n3)CC2)c1 [Example 1706, 2-((1-(5-fluoro-2-(pyridin-4-yl)phenyl)piperidin-4-yloxy)methyl)quinoline] | > 50 |
| Cc1ccnc(COc2ccc(-c3ccccc3-c3ccncc3)cc2)c1 [Example 1947, 4-methyl-2-((2′-(pyridin-4-yl)biphenyl-4-yloxy)methyl)pyridine] | > 50 |

The next lines start with the values.

| IC50 [nM] | Structure (SMILES) |
| --- | --- |
| ≤ 50 | N#Cc1ccc(-c2ccncc2)c(-c2ccc(OCc3ccc4ccccc4n3)cc2)c1 [Example 406, 6-(Pyridin-4-yl)-4′-(quinolin-2-ylmethoxy)biphenyl-3-carbonitrile] |
| ≤ 50 | c1ccc(-c2ccc(OCc3cn4ccccc4n3)cc2)c(-c2ccncc2)c1 [Example 619, 2-((2′-(pyridin-4-yl)biphenyl-4-yloxy)methyl)imidazo[1,2-a]pyridine] |
| ≤ 50 | N#Cc1ccc(-c2ccccc2-c2ccc(OCc3ccc4ccccc4n3)cc2)cc1 [Example 255] |
| ≤ 50 | N#Cc1cccc(N2CCOCC2)c1-c1ccc(OCc2ccc3ccccc3n2)cc1 [Example 448, 6-morpholino-4′-(quinolin-2-ylmethoxy)biphenyl-2-carbonitrile] |
| ≤ 50 | CS(=O)(=O)c1cccc(-c2ccncc2)c1-c1ccc(OCc2ccc3ccccc3n2)cc1 [Example 392, 2-((2′-(methylsulfonyl)-6′-(pyridin-4-yl)biphenyl-4-yloxy)methyl)quinoline] |
| ≤ 50 | N#Cc1cccc(-c2ccncc2)c1-c1ccc(OCc2ccc3ccccc3n2)cc1 [Example 383, 6-Pyridin-4-yl-4′-(quinolin-2-ylmethoxy)-biphenyl-2-carbonitrile] |
